Ends that are not written are not given here. Peptide text beside a SMILES is read from it.
Experiments:
[1] = PK of CNP immunoreactivity after single intravenous administration in rats; format: in vivo, rat
[2] = PK of CNP immunoreactivity after single subcutaneous administration in rats; format: in vivo, rat
[3] = mouse, in vivo
Description: Three-week-old juvenile female ICR mice (n = 5 or 10/group) received ASB20123 sc bolus injections once daily for 8 weeks. Seven-week-old male SD rats (n = 5/group) received ASB20123 as multiple sc bolus injections or a continuous sc infusion using an osmotic mini-pump (ALZET osmotic pump, Durect Corporation, USA) for 1 or 12 weeks. Growth rate of each animal was monitored throughout the treatment and washout periods. Body weight, body (naso-anal) length, and tail length were measured weekly, and femoral and tibial lengths were measured with digital calipers on the final day. Osteocalcin concentration in mouse serum was measured as a marker of bone formation using commercially available ELISA kits (Mouse Osteocalcin EIA kit, Biomedical Technologies Inc., USA). Anti-ASB20123 antibody in mouse serum was measured using commercially available ELISA kits (Protein detector ELISA Kit, Kirkegaard & Perry Laboratories, Inc., USA) and ASB20123. The blood samples were collected from the posterior vena cava at the end of the dosing period and centrifuged to obtain serum samples. CNP immunoreactivity in rat plasma was determined by RIA as mentioned in the method of PK studies. The blood samples were collected from cervical vein at 15 min after sc bolus dosing or before necropsy for animals given a continuous sc infusion.

[4] = Plasma CNP immunoreactivity after sc bolus in vehicles containing ECM in rats
Description: We prepared CNP(1–22) and ASB20123 dissolved in vehicles containing ECM and delivered them to rats as sc bolus injections at 0.58 mg/kg for evaluation of their in vivo effects (S2 Fig).

[5] = cited from earlier work
From the text: C-type natriuretic peptide (CNP) is a member of the natriuretic peptide (NP) family that also includes atrial natriuretic peptide (ANP) and brain natriuretic peptide (BNP). […] However, CNP is expressed in various tissues, such as the central nervous system, reproductive tract, bone, and endothelium of blood ...

[6] = test system: Crouzon syndrome mouse model; conditions: cited from earlier work
From the text: (§1) In the previous study, we designed and evaluated some CNP/ghrelin chimeric peptides as novel CNP derivatives. […] In the current study, we prepared another novel CNP/ghrelin chimeric peptide ASB20123 and evaluated its pharmacological activities. ASB20123 is comp ...

Fgfr3^ach mice = conditions: cited from earlier work
From the text: as §1

female ICR mice = experiment: Skeletal growth of mice given CNP(1–22) or human CNP(1–53) sc for 3 weeks; format: in vivo, mouse; conditions: subcutaneous administration for 3 weeks (S3 Fig)
From the text: Interstitial diffusion of macromolecules, such as HA and glycosaminoglycan, is affected by their physiochemical characteristics, including their size, charge, and hydrophilicity, as well as their interactions with the endogenous components present in the interstitium. Interaction between ASB20123 and the endogenous molecules might play a role in the diffusion and absorption processes. […] The C-terminal part of ASB20123 might interact with ECM components, such as HA and glycosaminoglycan, resulting in a delay of its absorption from the sc tissue to the circulation and improvement of its stability.
Supplementary file pone.0212680.s003.tif: S3 Fig Body weight and body length of female ICR mice subcutaneously administered CNP(1–22) and human CNP(1–53) for 3 weeks. (TIF) Click here for additional data file.

[7] = test system: neutral endopeptidase (NEP); conditions: cited from earlier work
[8] = anesthetized male SD rats, single iv 20 nmol/kg, plasma CNP immunoreactivity by RIA, mean of 3 rats
[9] = anesthetized male SD rats, single sc 50 nmol/kg, plasma CNP immunoreactivity by RIA, mean of 3 rats

## CC[C@H](C)[C@@H]1NC(=O)[C@H](CCCNC(=N)N)NC(=O)[C@H](CC(=O)O)NC(=O)[C@H](CC(C)C)NC(=O)[C@H](CCCCN)NC(=O)[C@H](CC(C)C)NC(=O)CNC(=O)[C@H](Cc2ccccc2)NC(=O)[C@@H](NC(=O)CNC(=O)[C@H](CCCCN)NC(=O)[C@H](CO)NC(=O)[C@H](CC(C)C)NC(=O)CN)CSSC[C@@H](C(=O)N[C@H](C(=O)N[C@@H](CCC(N)=O)C(=O)N[C@@H](CCC(N)=O)C(=O)N[C@@H](CCCNC(=N)N)C(=O)N[C@@H](CCCCN)C(=O)N[C@@H](CC(=O)O)C(=O)N[C@@H](CO)C(=O)N[C@@H](CCCCN)C(=O)N[C@@H](CCCCN)C(=O)N2CCC[C@H]2C(=O)N2CCC[C@H]2C(=O)N[C@@H](C)C(=O)N[C@@H](CCCCN)C(=O)N[C@@H](CC(C)C)C(=O)N[C@@H](CCC(N)=O)C(=O)N2CCC[C@H]2C(=O)N[C@@H](CCCNC(=N)N)C(=O)O)C(C)C)NC(=O)CNC(=O)[C@H](CC(C)C)NC(=O)CNC(=O)[C@H](CO)NC(=O)[C@H](CCSC)NC(=O)[C@H](CO)NC(=O)CNC1=O [ASB20123] (HELM PEPTIDE1{G.L.S.K.G.C.F.G.L.K.L.D.R.I.G.S.M.S.G.L.G.C.V.Q.Q.R.K.D.S.K.K.P.P.A.K.L.Q.P.R}$PEPTIDE1,PEPTIDE1,6:R3-22:R3$$$V2.0)
[1]; rat, in vivo, iv
  T1/2: 31.3 min
  Vdss: 0.429 L/kg
  Vdss relative to that of CNP(1–22): 6.7 fold
[2]; rat, in vivo, sc
  T1/2: 32.1 min
  Tmax: 20.0 min
[3]
  Anti-ASB20123 antibody in serum: not detected
[4]; rat, in vivo, sc, 0.58 mg/kg
  AUC: higher than that when ASB20123 was dissolved in saline
  Time to reach the maximum plasma CNP concentration (Cmax): delayed

## CC[C@H](C)[C@@H]1NC(=O)[C@H](CCCNC(=N)N)NC(=O)[C@H](CC(=O)O)NC(=O)[C@H](CC(C)C)NC(=O)[C@H](CCCCN)NC(=O)[C@H](CC(C)C)NC(=O)CNC(=O)[C@H](Cc2ccccc2)NC(=O)[C@@H](NC(=O)CNC(=O)[C@H](CCCCN)NC(=O)[C@H](CO)NC(=O)[C@H](CC(C)C)NC(=O)CN)CSSC[C@@H](C(=O)O)NC(=O)CNC(=O)[C@H](CC(C)C)NC(=O)CNC(=O)[C@H](CO)NC(=O)[C@H](CCSC)NC(=O)[C@H](CO)NC(=O)CNC1=O [CNP(1–22), C-type natriuretic peptide]
[1]; [8]
  AUC0→∞: 320 pmol・min/mL
  CLtot: 63.9 mL/min/kg
  MRT0→∞: 1.02 min
  T1/2: 1.42 min
  Vdss: 0.0642 L/kg
[2]; anesthetized male SD rats, single sc 50 nmol/kg, bioavailability, mean of 3 rats
  BA: 19%
[2]; [9]
  AUC0→∞: 152 pmol・min/mL
  Cmax: 9.02 nM
  MRT0→∞: 13.9 min
  T1/2: 10.0 min
  Tmax: 5.0 min
[4]; rats, sc bolus 0.58 mg/kg in vehicles containing ECM
  PK profile, effect of vehicle components: not affected by its vehicle components
[5]
  Clearance of exogenous peptide from the circulation: rapidly cleared from the circulation

## BMN-111
[6]
  Body length: increased the body length
Fgfr3^ach mice
  Body length: increased the body length

## CNP(1–53): 53-residue peptide generated from pro-CNP (DLRVDTKSRAAWARLLQEHPNARKYKGANKKGLSKGCFGLKLDRIGSMSGLGC; ends and bridges not checked; cysteine pairing not given here; UniProt P23582 74-126, looked up)
Female ICR mice
  Skeletal growth compared to CNP(1–22): more potently than that induced by CNP(1–22) administration
[7]
  Stability against neutral endopeptidase (NEP): resistant to proteolytic inactivation

From PMC6386482, “ASB20123: A novel C-type natriuretic peptide derivative for treatment of growth failure and dwarfism” (PLoS ONE, 2019)
